Measurements taken from patent publication US20250223303A1, “TRICYCLIC BORONIC ACID DERIVATIVE, AND PREPARATION METHOD THEREFOR AND APPLICATION THEREOF” (priority 2021, published 2025).

Experiments:
[1] = tested on: Acinetobacter baumannii WX-AB013; assay: MIC test of compounds in combination with antibiotics, Acinetobacter baumannii WX-AB013; details: for MIC of biapenem in combination with compound, Acinetobacter baumannii WX-AB013: Biapenem + compound (8 μg/mL); for MIC of meropenem in combination with compound, Acinetobacter baumannii WX-AB013: Meropenem + compound (8 μg/mL)
[2] = tested on: Acinetobacter baumannii WX-AB005; assay: MIC test of compounds in combination with antibiotics, Acinetobacter baumannii WX-AB005; details: for MIC of biapenem in combination with compound, Acinetobacter baumannii WX-AB005: Biapenem + compound (8 μg/mL); for MIC of meropenem in combination with compound, Acinetobacter baumannii WX-AB005: Meropenem + compound (8 μg/mL)
[3] = tested on: Acinetobacter baumannii ARLG-1791 OXA-23; assay: MIC test of compounds in combination with antibiotics, Acinetobacter baumannii ARLG-1791; details: for MIC of biapenem in combination with compound, Acinetobacter baumannii ARLG-1791 OXA-23: Biapenem + compound (8 μg/mL); for MIC of meropenem in combination with compound, Acinetobacter baumannii ARLG-1791 OXA-23: Meropenem + compound (8 μg/mL)
[4] = tested on: Klebsiella pneumoniae ATCC BAA-2470; assay: MIC test of compounds in combination with antibiotics, Klebsiella pneumoniae ATCC BAA-2470; details: for MIC of biapenem in combination with compound, Klebsiella pneumoniae ATCC BAA-2470 NDM-1: Biapenem + compound (8 μg/mL); for MIC of meropenem in combination with compound, Klebsiella pneumoniae ATCC BAA-2470 NDM-1: Meropenem + compound (8 μg/mL)
[5] = tested on: Escherichia coli ARLG 2829; assay: MIC test of compounds in combination with antibiotics, Escherichia coli ARLG 2829; details: for MIC of biapenem in combination with compound, Escherichia coli ARLG-2829 NDM-5, OXA-1: Biapenem + compound (8 μg/mL); for MIC of meropenem in combination with compound, Escherichia coli ARLG-2829 NDM-5, OXA-1: Meropenem + compound (8 μg/mL)
[6] = tested on: Acinetobacter baumannii ARLG-1853 OXA-23; assay: MIC test of compounds in combination with antibiotics, Acinetobacter baumannii ARLG-1853; details: for MIC of biapenem in combination with compound, Acinetobacter baumannii ARLG-1853 OXA-23: Biapenem + compound (8 μg/mL); for MIC of meropenem in combination with compound, Acinetobacter baumannii ARLG-1853 OXA-23: Meropenem + compound (8 μg/mL)
[7] = tested on: Klebsiella pneumoniae ATCC BAA-1705; assay: MIC test of compounds in combination with antibiotics, Klebsiella pneumoniae ATCC BAA-1705; details: for MIC of biapenem in combination with compound, Klebsiella pneumoniae ATCC BAA-1705 KPC-2: Biapenem + compound (8 μg/mL); for MIC of meropenem in combination with compound, Klebsiella pneumoniae ATCC BAA-1705 KPC-2: Meropenem + compound (8 μg/mL)
[8] = tested on: Acinetobacter baumannii ARLG-1852 OXA-23; assay: MIC test of compounds in combination with antibiotics, Acinetobacter baumannii ARLG-1852; details: for MIC of biapenem in combination with compound, Acinetobacter baumannii ARLG-1852 OXA-23: Biapenem + compound (8 μg/mL); for MIC of meropenem in combination with compound, Acinetobacter baumannii ARLG-1852 OXA-23: Meropenem + compound (8 μg/mL)
[9] = tested on: Klebsiella pneumoniae ARLG 1196; assay: MIC test of compounds in combination with antibiotics, Klebsiella pneumoniae ARLG 1196; details: for MIC of biapenem in combination with compound, Klebsiella pneumoniae ARLG-1196 CTM-1 group, SHV, NDM, TEM: Biapenem + compound (8 μg/mL); for MIC of meropenem in combination with compound, Klebsiella pneumoniae ARLG-1196 CTM-1 group, SHV, NDM, TEM: Meropenem + compound (8 μg/mL)
[10] = tested on: Acinetobacter baumannii ARLG-1809 OXA-23; assay: MIC test of compounds in combination with antibiotics, Acinetobacter baumannii ARLG-1809; details: for MIC of biapenem in combination with compound, Acinetobacter baumannii ARLG-1809 OXA-23: Biapenem + compound (8 μg/mL); for MIC of meropenem in combination with compound, Acinetobacter baumannii ARLG-1809 OXA-23: Meropenem + compound (8 μg/mL)
[11] = tested on: Acinetobacter baumannii ARLG-1853 OXA-23; assay: MIC test of compounds in combination with antibiotics, Acinetobacter baumannii ARLG-1853; details: Acinetobacter baumannii, ARLG1853OXA23
[12] = tested on: Acinetobacter baumannii WX-AB005; assay: MIC test of compounds in combination with antibiotics, Acinetobacter baumannii WX-AB005; details: Acinetobacter baumannii, WXAB005
[13] = tested on: Acinetobacter baumannii ARLG-1852 OXA-23; assay: MIC test of compounds in combination with antibiotics, Acinetobacter baumannii ARLG-1852; details: Acinetobacter baumannii, ARLG1852OXA23
[14] = tested on: Acinetobacter baumannii ARLG-1809 OXA-23; assay: MIC test of compounds in combination with antibiotics, Acinetobacter baumannii ARLG-1809; details: Acinetobacter baumannii, ARLG1809OXA23
[15] = tested on: Acinetobacter baumannii ARLG-1791 OXA-23; assay: MIC test of compounds in combination with antibiotics, Acinetobacter baumannii ARLG-1791; details: Acinetobacter baumannii, ARLG1791OXA23
[16] = tested on: Acinetobacter baumannii WX-AB013; assay: MIC test of compounds in combination with antibiotics, Acinetobacter baumannii WX-AB013; details: Acinetobacter baumannii, WXAB013

MIC of biapenem in combination with compound, Acinetobacter baumannii WX-AB013 [1] [µg/mL] | MIC of meropenem in combination with compound, Acinetobacter baumannii WX-AB013 [1] [µg/mL] | MIC of biapenem in combination with compound, Acinetobacter baumannii WX-AB005 [2] [µg/mL] | MIC of meropenem in combination with compound, Acinetobacter baumannii WX-AB005 [2] [µg/mL] | MIC of biapenem in combination with compound, Acinetobacter baumannii ARLG-1791 OXA-23 [3] [µg/mL] | MIC of meropenem in combination with compound, Acinetobacter baumannii ARLG-1791 OXA-23 [3] [µg/mL] | MIC of biapenem in combination with compound, Klebsiella pneumoniae ATCC BAA-2470 NDM-1 [4] [µg/mL] | MIC of meropenem in combination with compound, Klebsiella pneumoniae ATCC BAA-2470 NDM-1 [4] [µg/mL] | MIC of biapenem in combination with compound, Escherichia coli ARLG-2829 NDM-5, OXA-1 [5] [µg/mL] | MIC of meropenem in combination with compound, Escherichia coli ARLG-2829 NDM-5, OXA-1 [5] [µg/mL] | MIC of biapenem in combination with compound, Acinetobacter baumannii ARLG-1853 OXA-23 [6] [µg/mL] | MIC of meropenem in combination with compound, Acinetobacter baumannii ARLG-1853 OXA-23 [6] [µg/mL] | MIC of biapenem in combination with compound, Klebsiella pneumoniae ATCC BAA-1705 KPC-2 [7] [µg/mL] | MIC of meropenem in combination with compound, Klebsiella pneumoniae ATCC BAA-1705 KPC-2 [7] [µg/mL] | MIC of biapenem in combination with compound, Acinetobacter baumannii ARLG-1852 OXA-23 [8] [µg/mL] | MIC of meropenem in combination with compound, Acinetobacter baumannii ARLG-1852 OXA-23 [8] [µg/mL] | MIC of biapenem in combination with compound, Klebsiella pneumoniae ARLG-1196 CTM-1 group, SHV, NDM, TEM [9] [µg/mL] | MIC of meropenem in combination with compound, Klebsiella pneumoniae ARLG-1196 CTM-1 group, SHV, NDM, TEM [9] [µg/mL] | MIC of biapenem in combination with compound, Acinetobacter baumannii ARLG-1809 OXA-23 [10] [µg/mL] | MIC of meropenem in combination with compound, Acinetobacter baumannii ARLG-1809 OXA-23 [10] [µg/mL] | Compound | also measured
1 | 4 | 4 | 8 | 1 | 8 | 0.5 | 16 | 0.5 | 8 | 1 | 4 | 0.5 | 0.5 | 1 | 8 | ≤0.125 | 4 | 4 | 8 | C[C@@H](Sc1ccc2c(c1C(=O)O)OB(O)[C@H]1C[C@@H]21)[C@@H]1CCCO1 [Compound 18-d] | –
0.5 | 2 | 2 | 4 | 0.25 | 2 | ≤0.125 | 4 | 0.25 | 16 | 0.25 | 2 | 0.5 | ≤0.125 | 0.25 | 2 | ≤0.125 | 2 | 0.5 | 2 | C[C@H](Sc1ccc2c(c1C(=O)O)OB(O)[C@@H]1C[C@H]21)C1CN(C)C1 [Compound 20-a] | –
– | – | – | – | – | – | – | – | – | – | – | – | – | – | – | – | – | – | – | – | C[C@@H](O)[C@H]1C(=O)N2C(C(=O)O)=C(S[C@@H]3CN[C@H](C(=O)N(C)C)C3)[C@H](C)[C@H]12 [Meropenem] | MIC [11]: 128 µg/mL; MIC [12]: > 128 µg/mL; MIC ([4]; Klebsiella pneumoniae, ATCCBAA2470): 128 µg/mL; MIC [13]: 128 µg/mL; MIC [14]: 32 µg/mL; MIC ([5]; Escherichia coli, ARLG2829): > 128 µg/mL; MIC ([7]; Klebsiella pneumoniae, ATCCBAA1705): 128 µg/mL; MIC [15]: > 128 µg/mL; MIC [16]: 64 µg/mL; MIC ([9]; Klebsiella pneumoniae, ARLG1196): 128 µg/mL
